What was measured:
[1] = in vivo; cited from earlier work
[2] = cited from earlier work; for Stability with sodium acetate: Tris buffer pH 7.4, sodium acetate added; for Stability in Tris buffer: pH 7.4
form-deprivation myopia = settings: daily intravitreal injections; young chickens; cited from earlier work
[3] = test system: eye of a young maturing animal; settings: ocular administration; cited from earlier work
[4] = Solubility of dopamine agonists in 10 mM citrate buffer (pH 5) at 25° C. with or without HPCD; format: physicochemical
Procedure: (§1) The stability and solubility of dopamine agonists, i.e., bromocriptine(BCT), apomorphine(APO), pergolide(PER), and lisuride(LIS) were tested as follows.
(§2) For the stability test, solutions each containing 100 μg/ml of the dopamine agonist in 10 mM citrate buffer(pH 5) were incubated at 25° C. for 30 days with or without added 2-hydroxypropyl-β-cyclodextrin(HPCD, average molar substitution=0.8, average molecular weight=1500; 20 wt % based on the solution).
(§3) The amounts of the dopamine agonists in sample solutions of the stability and solubility tests were determined by HPLC method with fluorescence detector.
(§4) Each data point in FIGS. 1A and 1B represents the mean of two determinations and each value in FIG. 2 is the mean±SD(standard deviation) of three determinations. […] The addition of HPCD also bring about marked increases in the solubilities of the dopamine agonists; by a factor of 19 for bromocriptine, and two for apomorphine, pergolide, and lisuride.

[5] = Stability of dopamine agonists in 10 mM citrate buffer (pH 5) at 25° C. with or without HPCD; format: physicochemical; settings: 100 μg/ml, 10 mM citrate buffer pH 5, 25° C., 30 days, with vs without 20 wt % HPCD
Procedure: as §1, §2, §3, §4

[6] = mucoadhesive polymer, e.g., polycarbophil; cited from earlier work
[7] = in vivo; cited from earlier work; remark: listed apart in the source

## 2-hydroxypropyl-β-cyclodextrin
[1]
  Tolerability when administered: innocuous when administered

## CN1CCc2cccc3c2[C@H]1Cc1ccc(O)c(O)c1-3 [apomorphine]
[2]; 0.01% mercaptoethanol
  Stability with mercaptoethanol: stability of apomorphine is improved
[2]
  Stability with sodium acetate: greatly enhanced
  Stability in Tris buffer: unstable
[2]; water or plasma, ascorbic acid and sodium bisulfate
  Stability with antioxidants: can be stabilized by the addition of antioxidants
form-deprivation myopia
  Effect on form-deprivation myopia (FDM): block form-deprivation myopia
[3]
  Inhibition of axial enlargement of the eye: can inhibit, and in some cases completely prevent, the axial enlargement of the eye
[4]; pH 5
  Increase in solubility by addition of HPCD (factor): two

## CC(C)C[C@H]1C(=O)N2CCC[C@H]2[C@]2(O)O[C@](NC(=O)[C@@H]3C=C4c5cccc6[nH]c(Br)c(c56)C[C@H]4N(C)C3)(C(C)C)C(=O)N12 [bromocriptine]
[5]
  Effect of HPCD on stability: significant increases in the stabilities

## CCCC(=O)c1ccccc1 [butyrophenone]
[3]
  Inhibition of axial enlargement of the eye: can inhibit, and in some cases completely prevent, the axial enlargement of the eye

## NCCc1ccc(O)c(O)c1 [dopamine]
[2]
  Stability with sodium acetate: greatly enhanced
  Stability in Tris buffer: unstable

## O=C(CCCN1CCC(O)(c2ccc(Cl)cc2)CC1)c1ccc(F)cc1 [haloperidol]
[3]
  Inhibition of axial enlargement of the eye: can inhibit, and in some cases completely prevent, the axial enlargement of the eye

## CCN(CC)C(=O)N[C@H]1C=C2c3cccc4[nH]cc(c34)C[C@H]2N(C)C1 [lisuride]
[5]
  Effect of HPCD on stability: does not affect the stabilities
[4]; 20 mg/ml, 10 mM citrate buffer pH 5, 25° C., 24 hours, 20 wt % HPCD vs none
  Increase in solubility by addition of HPCD (factor): two

## CCCN1C[C@H](CSC)C[C@@H]2c3cccc4[nH]cc(c34)C[C@H]21 [pergolide]
[4]; pH 5
  Increase in solubility by addition of HPCD (factor): two

## gentamicin
[6]
  Penetration via the conjunctival-scleral pathway: facilitated

## poly(vinyl alcohol)
[7]
  Increase in the iris-ciliary body to plasma drug concentration ratio: 52 fold

Reference: patent US5814638A, “Ophthalmic formulation for treating myopia comprising dopamine agonist and cyclodextrin” (LG Chemical Ltd., priority 1996, dated 1998)
